Counter-ions that a name gives are not always drawn. Like-named read-outs stand apart in the source and are kept apart here.
Tested on: relapsed AML cells
Assay: Drug sensitivity assay, 1,536-well, 3-day culture with individual approved drugs at 10 μM, viability by alamarBlue
Assay type: cell-based, human
Description: Drug sensitivity assays were performed using a 1,536-well platform where all cells and reagents were deposited in wells using an acoustic liquid handling unit that is highly accurate for dispensing of nanoliter volumes of liquid. […] After dispensing the cells into the wells, an independent drug at a known concentration is added to each well and incubated with the cells. After three days, the percentage of live cells in each well is determined to assess the killing efficiency of each compound. […] Cell viability assays are known to those of skill in the art. See, for example, Pemovska et al., Individualized systems medicine strategy to tailor treatments for patients with chemorefractory acute myeloid leukemia. Cancer Discovery 3:1416-1429, 2013; Pabst et al., Identification of small molecules that support human leukemia stem cell activity ex vivo. Nature Methods 11:436-442, 2014; Baccelli et al., A novel approach for the identification of efficient combination therapies in primary human acute myeloid leukemia specimens. Blood Cancer Journal 7:e529, 2017. In studies described herein, the 1,536-well format was utilized, which allowed for use of four times fewer cells as well as less drug and media components due to the small assay volume of 5 microliters. […] Other compounds like CellTiter-Glo (Promega, Madison, Wis.) are equally appropriate reagents for determining cell viability.
Conditions for the drug screening assays were as described in Pabst et al., Identification of small molecules that support human leukemia stem cell activity ex vivo, Nature Methods 11:436-442, 2014). Using this protocol, cells were cultured in Iscove's Modified Dulbecco's Medium (IMDM), 15% BIT (bovine serum albumin, insulin, transferrin; Stem Cell Technologies 09500 (Vancouver, Calif.)), 100 ng/ml SCF (Shenandoah 100-04 (Warwick, Pa.)), 50 ng/ml FLT3L (Shenandoah 100-21), 20 ng/ml IL-3 (Shenandoah 100-80), 20 ng/ml G-CSF (Shenandoah 100-72), 10^-4 M β-mercaptoethanol, gentamicin (50 μg/ml) and ciprofloxacin (10 μg/ml).
Cells were removed from liquid nitrogen and placed in a 37° C. bath, just until thawed. For 1,536-well screens utilizing 6,000 wells about 100 million cells were thawed. The volume was doubled with pre-warmed culture media and placed on ice for about one to two minutes. The cells were brought to a final volume of about 8 to 10 mL before spinning down at 1,100 rpm for 5 min at 10° C. The pelleted cells were resuspended in 10 mL of culture media and plated in a tissue-culture treated T75 flask at a density of 1 to 2 million cells/ml. The cells were cultured overnight prior to fluorescence-activated cell sorting of viable cells on the following day.
After cells were cultured overnight, a cell scraper was used to remove any cells that adhered to the plastic. The cells were gently pipetted up and down to break up aggregates. Then, the entire volume was transferred to a 50 mL conical tube through a 70 micron cell strainer to remove cell clumps. The T75 flask was rinsed and scraped with about 10 mL HBSS and transferred to the same 50 mL conical tube through the strainer. The harvested cells were spun down at 1,100 rpm for 5 min at 10° C. The cells were then resuspendd in about 300-500 microliters FACS buffer (HBSS+2% FBS+1× propidium iodide) and transferred to a FACS tube. The tube was placed on ice and viable cells that are forward- and side-scatter gated on viable myeloid blasts were sorted by FACS (the scatter gate should exclude small lymphocytes, large myeloid cells, and debris). After sorting the required number of viable cells, the cells were spun down at 1,100 rpm for 5 min at 10° C. and subsequently resuspended at 4,000-4,500 cells per 5 microliter volume of complete culture media with growth factors and penicillin/streptomycin.

[1] = number of relapsed AML cases out of 18 tested with >70% cell death, 10 μM, 3-day culture

Molecule	#Cases >70% cell death [1]	#Cases >70% cell death
CC[C@H](CC#N)OC(=O)N[C@@H](C)c1cccc(NC(=O)Nc2ccc(-c3cnco3)c(OC)c2)c1 [AVN944]	10	
Cc1ccc(C(=O)Nc2ccc(CN3CCN(C)CC3)c(C(F)(F)F)c2)cc1C#Cc1cnc2cccnn12 [PONATINIB]	18	
C[C@@H]1CCCN1CCc1cc2cc(-c3ccc(C#N)cc3)ccc2o1 [ABT-239]	1	
CC1=C(C(=O)OC(C)C)C(c2cccc([N+](=O)[O-])c2)C(C(=O)OC2CN(C(c3ccccc3)c3ccccc3)C2)=C(N)N1 (centres unmarked) [AZELNIDIPINE]	5	
N#Cc1ccc2[nH]cc(CCCCN3CCN(c4ccc5oc(C(N)=O)cc5c4)CC3)c2c1 [VILAZODONE]	2	
CC(=O)[C@@]1(O)CC[C@H]2[C@@H]3CCC4=CC(=O)CC[C@]4(C)[C@H]3CC[C@@]21C [HYDROXYPROGESTERONE]	2	
Cc1ncc2c(c1O)COC2c1ccc(Cl)cc1 (centres unmarked) [CICLETANINE]	4	
O=C(NCC1CCCCN1)c1cc(OCC(F)(F)F)ccc1OCC(F)(F)F (centres unmarked)	1	
c1ccc(CC2=NCCN2)cc1 [TOLAZOLINE HYDROCHLORIDE]	4	
COc1ccc2nc3cc(Cl)ccc3c(Nc3cc(CN4CCCC4)c(O)c(CN4CCCC4)c3)c2n1.O=P(O)(O)O.O=P(O)(O)O.O=P(O)(O)O.O=P(O)(O)O [PYRONARIDINE TETRAPHOSPHATE]	9	
O=C(CCCN1CC=C(n2c(=O)[nH]c3ccccc32)CC1)c1ccc(F)cc1 [DROPERIDOL]	2	
Nc1nc(Cl)nc2c1ncn2[C@@H]1O[C@H](CO)[C@@H](O)[C@@H]1F [CLOFARABINE]	18	
Nc1nc2nc[nH]c2c(=S)[nH]1 [THIOGUANINE]	14	
C[C@@H]1CCN(C(=O)CC#N)C[C@@H]1N(C)c1ncnc2[nH]ccc12 [TOFACETINIB]	4	
ZINC PYRITHIONE		9
CN1CCN(CCCN2c3ccccc3Sc3ccc(Cl)cc32)CC1 [PROCHLORPERAZINE]	6	
CC(C)C(=O)Nc1ccc([N+](=O)[O-])c(C(F)(F)F)c1 [FLUTAMIDE]	2	
TYLOXAPOL	8	
CC(C)C[C@H](NC(=O)CNC(=O)c1cc(Cl)ccc1Cl)B1OC(=O)C(CC(=O)O)(CC(=O)O)O1 [MLN9708]	1	
CN(C)C(=S)SSC(=S)N(C)C [THIRAM]	4	

Molecule	#Cases >70% cell death [1]	#Cases >70% cell death
Nc1nc2nn[nH]c2c(=O)[nH]1 [8-AZAGUANINE]	1	
Nc1ccn([C@@H]2O[C@H](CO)[C@@H](O)[C@@H]2O)c(=O)n1 [CYTARABINE]	16	
CCCOc1ccc2nc(NC(=O)OC)[nH]c2c1 [OXIBENDAZOLE]	5	
CC(C)(C)CC(C)(C)c1cc(Cc2cc(C(C)(C)CC(C)(C)C)cc(-n3nc4ccccc4n3)c2O)c(O)c(-n2nc3ccccc3n2)c1 [BISOCTRIZOLE]	1	
C#C[C@]1(O)CC[C@H]2[C@@H]3CCC4=Cc5oncc5C[C@]4(C)[C@H]3CC[C@@]21C [DANAZOL]	1	
CC(C)C[C@H](NC(=O)[C@H](CCc1ccccc1)NC(=O)CN1CCOCC1)C(=O)N[C@@H](Cc1ccccc1)C(=O)N[C@@H](CC(C)C)C(=O)[C@@]1(C)CO1 [CARFILZOMIB]	18	
N#Cc1cc(CN2CCC(Nc3ncnc4sc(Cl)cc34)CC2)ccc1F [PRX-8066]	1	
COC(=O)C1=C(C)NC(C)=C(C(=O)OCCCN2CCC(c3ccccc3)(c3ccccc3)CC2)[C@H]1c1cccc([N+](=O)[O-])c1 [NIGULDIPINE]		12
CCNC1=Nc2ccc(Cl)cc2C(C)(c2ccccc2)O1 (centres unmarked) [ETIFOXINE]	4	
C[C@@H]1C[C@H]2[C@@H]3CCC4=CC(=O)C=C[C@]4(C)[C@@]3(Cl)[C@@H](O)C[C@]2(C)[C@@]1(OC(=O)c1ccco1)C(=O)CCl [MOMETASONE FUROATE]	2	
C=CCNC1=C2C[C@@H](C)C[C@H](OC)[C@H](O)[C@@H](C)/C=C(\C)[C@H](OC(N)=O)[C@@H](OC)/C=C\C=C(/C)C(=O)NC(=CC1=O)C2=O [TANESPIMYCIN (17-AAG), TANESPIMYCIN]	18	
CC(C)CC(=O)Nc1n[nH]c2c1CN(C(=O)C1CCN(C)CC1)C2(C)C [PHA-793887]	16	
CC(=O)[C@]1(O)Cc2c(O)c3c(c(O)c2[C@@H](O[C@H]2C[C@H](N)[C@H](O)[C@H](C)O2)C1)C(=O)c1ccccc1C3=O [IDARUBICIN]	18	
C#C[C@]1(O)CC[C@H]2[C@@H]3CCc4cc(O)ccc4[C@H]3CC[C@@]21C [ETHINYL ESTRADIOL]	1	
C[C@H]1C[C@@H]2[C@H]([C@@H](O)C[C@@]3(C)[C@H]2CC[C@]3(O)C(=O)CO)[C@@]2(C)C=CC(=O)C=C12 [METHYLPREDNISOLONE]	1	
O=C(/C=C/c1cccnc1)NCCCCC1CCN(C(=O)c2ccccc2)CC1 [APO-866]	17	
Nc1ccc2cc3ccc(N)cc3nc2c1 [PROFLAVINE HEMISULFATE]	3	
CCC(COC(=O)c1cc(OC)c(OC)c(OC)c1)(c1ccccc1)N(C)C (centres unmarked) [TRIMEBUTINE]	1	
Nc1nc(Cl)nc2c1ncn2[C@H]1C[C@H](O)[C@@H](CO)O1 [CLADRIBINE]	17	
Cc1ccc2c(Br)cc(Br)c(OC(=O)c3ccccc3)c2n1 [BROXALDINE]	2	

Molecule	#Cases >70% cell death [1]	#Cases >70% cell death
CN1CCCC(n2nc(Cc3ccc(Cl)cc3)c3ccccc3c2=O)CC1 (centres unmarked) [AZELASTINE]	2	
C[C@@H](Oc1cc(-c2cnn(C3CCNCC3)c2)cnc1N)c1c(Cl)ccc(F)c1Cl [CRIZOTINIB]	10	
O=c1[nH]c2ccccc2n1C1CCN(CCCC(c2ccc(F)cc2)c2ccc(F)cc2)CC1 [PIMOZIDE]	1	
VINFLUNINE TARTRATE	14	
APILIMOD MESYLATE	4	
Nc1ncnc2c1ncn2CCOCP(=O)(O)O [ADEFOVIR]	18	
COc1cc([C@@H]2c3cc4c(cc3[C@@H](O[C@@H]3O[C@@H]5CO[C@@H](c6cccs6)O[C@H]5[C@H](O)[C@H]3O)[C@H]3COC(=O)[C@H]23)OCO4)cc(OC)c1O [TENIPOSIDE]	10	
NC(=O)Nc1cc(-c2cccc(F)c2)sc1C(=O)N[C@H]1CCCNC1 [AZD-7762]	14	
CC(C)(C)c1cnc(CSc2cnc(NC(=O)C3CCNCC3)s2)o1 [BMS-387032]	18	
CCCn1c(=O)c2[nH]c(C34CC5CC(CC3C5)C4)nc2n(CCC)c1=O [ROLOFYLLINE]	1	
CN1CCc2cccc3c2[C@H]1Cc1ccc(O)c(O)c1-3 [APOMORPHINE]	5	
CCc1ccc(OCc2ccccc2C(=O)Nc2ccc3nc(C)cc(N)c3c2)cc1 [JTC-801]	18	
Clc1ccc(CO/N=C(\Cn2ccnc2)c2ccc(Cl)cc2Cl)c(Cl)c1 [OXICONAZOLE]	1	
CCCOc1ccc(C(=O)OCCN(CC)CC)cc1N [PROPARACAINE]	1	
O=C1NCC2(CCN(CCc3ccccc3)CC2)O1 [FENSPIRIDE]	3	
CC(C)NCC(O)COc1ccc(CC(N)=O)cc1 (centres unmarked) [ATENOLOL]	1	
O=C(Nc1ccc(-c2ccnc(Nc3ccc(N4CCOCC4)cc3)n2)cc1)C1CCCN1 (centres unmarked) [XL019]	3	
CC[C@]1(O)C[C@H]2CN(CCc3c([nH]c4ccccc34)[C@@](C(=O)OC)(c3cc4c(cc3OC)N(C=O)[C@H]3[C@@](O)(C(=O)OC)[C@H](OC(C)=O)[C@]5(CC)C=CCN6CC[C@]43[C@@H]65)C2)C1 [VINCRISTINE]	14	
OCCN1CCN(CCCN2c3ccccc3Sc3ccc(Cl)cc32)CC1 [PERPHENAZINE]	2	

Reference: patent US20210405025A1, “IDENTIFYING COMPOUNDS FOR TREATING CANCER AND USE THEREOF” (THE UAB RESEARCH FOUNDATION, priority 2018, published 2021)
